Key:
Assay type in all cases: in vivo
[1] = tested on: ducksalad (Heteranthera limosa); experiment: Test B flooded paddy test, visual plant response rating 0-100; conditions: 250 g ai/ha, Flood, applied to paddy water, evaluated after 13 days
Summary of the method: (§1)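 Plants were grown to the 2-leaf stage, then pots were flooded to 3 cm above the soil and compound was applied directly to the paddy water, with that depth kept throughout.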

[2] = tested on: rice (Oryza sativa); experiment: as above; conditions: 250 g ai/ha, Flood, applied to paddy water, evaluated after 13 days
Summary of the method: as §1

[3] = tested on: sedge, umbrella (small-flower umbrella sedge, Cyperus difformis); experiment: as above; conditions: 250 g ai/ha, Flood, applied to paddy water, evaluated after 13 days
Summary of the method: as §1

[4] = tested on: barnyardgrass (Echinochloa crusgalli); experiment: as above; conditions: 250 g ai/ha, Flood, applied to paddy water, evaluated after 13 days
Summary of the method: as §1

[5] = tested on: oat, wild (wild oat, Avena fatua); experiment: Test A postemergence application, visual injury rating 0-100; conditions: 10 days
Summary of the method: (§2)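 Preemergence directed soil spray or postemergence spray (2-10 cm, 1-2 leaf); loam/sand mix; compound in non-phytotoxic solvent + surfactant. Greenhouse, 10 d. Visual injury vs untreated, 0 = none, 100 = complete control.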

[6] = tested on: ryegrass, Italian (italian ryegrass, Lolium multiflorum); experiment: as above; conditions: 10 days
Summary of the method: as §2

[7] = tested on: ragweed (common ragweed, Ambrosia artemisiifolia); experiment: as above; conditions: 10 days
Summary of the method: as §2

[8] = tested on: blackgrass (Alopecurus myosuroides); experiment: as above; conditions: 10 days
Summary of the method: as §2

[9] = tested on: palmer (palmer amaranth, palmer pigweed, Amaranthus palmeri); experiment: as above; conditions: 10 days
Summary of the method: as §2

[10] = tested on: galium (catchweed bedstraw, Galium aparine); experiment: as above; conditions: 10 days
Summary of the method: as §2

[11] = tested on: soybean (Glycine max); experiment: as above; conditions: 10 days
Summary of the method: as §2

[12] = tested on: barnyardgrass (Echinochloa crus-galli); experiment: as above; conditions: 10 days
Summary of the method: as §2

[13] = tested on: horseweed (Erigeron canadensis); experiment: as above; conditions: 10 days
Summary of the method: as §2

[14] = tested on: wheat (Triticum aestivum); experiment: as above; conditions: 10 days
Summary of the method: as §2

[15] = tested on: green foxtail (Setaria viridis); experiment: as above; conditions: 10 days
Summary of the method: as §2

[16] = tested on: corn (Zea mays); experiment: as above; conditions: 10 days
Summary of the method: as §2

[17] = tested on: kochia (Bassia scoparia); experiment: as above; conditions: 10 days
Summary of the method: as §2

[18] = tested on: oat, wild (wild oat, Avena fatua); experiment: Test A preemergence soil spray, visual injury rating 0-100; conditions: 10 days, 0 = no effect, 100 = complete control
Summary of the method: as §2

[19] = tested on: ryegrass, Italian (italian ryegrass, Lolium multiflorum); experiment: as above; conditions: 10 days, 0 = no effect, 100 = complete control
Summary of the method: as §2

[20] = tested on: ragweed (common ragweed, Ambrosia artemisiifolia); experiment: as above; conditions: 10 days, 0 = no effect, 100 = complete control
Summary of the method: as §2

[21] = tested on: blackgrass (Alopecurus myosuroides); experiment: as above; conditions: 10 days, 0 = no effect, 100 = complete control
Summary of the method: as §2

[22] = tested on: palmer (palmer amaranth, palmer pigweed, Amaranthus palmeri); experiment: as above; conditions: 10 days, 0 = no effect, 100 = complete control
Summary of the method: as §2

[23] = tested on: soybean (Glycine max); experiment: as above; conditions: 10 days, 0 = no effect, 100 = complete control
Summary of the method: as §2

[24] = tested on: barnyardgrass (Echinochloa crus-galli); experiment: as above; conditions: 10 days, 0 = no effect, 100 = complete control
Summary of the method: as §2

[25] = tested on: wheat (Triticum aestivum); experiment: as above; conditions: 10 days, 0 = no effect, 100 = complete control
Summary of the method: as §2

[26] = tested on: green foxtail (Setaria viridis); experiment: as above; conditions: 10 days, 0 = no effect, 100 = complete control
Summary of the method: as §2

[27] = tested on: corn (Zea mays); experiment: as above; conditions: 10 days, 0 = no effect, 100 = complete control
Summary of the method: as §2

[28] = tested on: kochia (Bassia scoparia); experiment: as above; conditions: 10 days, 0 = no effect, 100 = complete control
Summary of the method: as §2

[29] = 31 g ai/ha, postemergence, 0 = no effect, 100 = complete control
[30] = Postemergence, 125 g ai/ha, 0 is no effect, 100 is complete control

CSCCOC(=O)C1=CCC(NC(=O)C2(C)CN(c3cc(F)cc(F)c3)C(=O)O2)C1 (stereo not shown) [Compound 22]
Plant response rating, Ducksalad (0 to 100 scale, 0 is no effect and 100 is complete control) [1]: 0
Plant response rating, Rice (0 to 100 scale, 0 is no effect and 100 is complete control) [2]: 0
Plant response rating, Sedge, Umbrella (0 to 100 scale, 0 is no effect and 100 is complete control) [3]: 0
Plant response rating, Barnyardgrass (0 to 100 scale, 0 is no effect and 100 is complete control) [4]: 0
Oat, Wild plant response rating (0-100) [5, 29]: 40
Oat, Wild plant response rating (0 to 100 scale) [5, 30]: 70
Ryegrass, Italian plant response rating (0-100) [6, 29]: 60
Ryegrass, Italian plant response rating (0 to 100 scale) [6, 30]: 70
Ragweed plant response rating (0-100) [7, 29]: 0
Ragweed plant response rating (0 to 100 scale) [7, 30]: 50
Blackgrass plant response rating (0-100) [8, 29]: 60
Blackgrass plant response rating (0 to 100 scale) [8, 30]: 80
Amaranth, Palmer plant response rating (0-100) [9, 29]: 20
Amaranth, Palmer / Pigweed, Palmer plant response rating (0 to 100 scale) [9, 30]: 80
Galium plant response rating (0-100) [10, 29]: 60
Galium plant response rating (0 to 100 scale) [10, 30]: 80
Soybean plant response rating (0-100) [11, 29]: 70
Soybean plant response rating (0 to 100 scale) [11, 30]: 90
Barnyardgrass plant response rating (0-100) [12, 29]: 70
Barnyardgrass plant response rating (0 to 100 scale) [12, 30]: 90
Horseweed plant response rating (0-100) [13, 29]: 0
Horseweed plant response rating (0 to 100 scale) [13, 30]: 30
Wheat plant response rating (0-100) [14, 29]: 90
Wheat plant response rating (0 to 100 scale) [14, 30]: 90
Foxtail, Green plant response rating (0-100) [15, 29]: 20
Foxtail, Green plant response rating (0 to 100 scale) [15, 30]: 80
Corn plant response rating (0-100) [16, 29]: 50
Corn plant response rating (0 to 100 scale) [16, 30]: 100
Kochia plant response rating (0-100) [17, 29]: 60
Kochia plant response rating (0 to 100 scale) [17, 30]: 90
Oat, Wild plant response rating (0-100) ([18]; 31 g ai/ha): 0
Oat, Wild plant response rating (0 to 100 scale) ([18]; 125 g ai/ha): 20
Ryegrass, Italian plant response rating (0-100) ([19]; 31 g ai/ha): 0
Ryegrass, Italian plant response rating (0 to 100 scale) ([19]; 125 g ai/ha): 50
Ragweed plant response rating (0-100) ([20]; 31 g ai/ha): 0
Ragweed plant response rating (0 to 100 scale) ([20]; 125 g ai/ha): 0
Blackgrass plant response rating (0-100) ([21]; 31 g ai/ha): 0
Blackgrass plant response rating (0 to 100 scale) ([21]; 125 g ai/ha): 20
Amaranth, Palmer plant response rating (0-100) ([22]; 31 g ai/ha): 0
Amaranth, Palmer plant response rating (0 to 100 scale) ([22]; 125 g ai/ha): 80
Soybean plant response rating (0-100) ([23]; 31 g ai/ha): 0
Soybean plant response rating (0 to 100 scale) ([23]; 125 g ai/ha): 10
Barnyardgrass plant response rating (0-100) ([24]; 31 g ai/ha): 0
Barnyardgrass plant response rating (0 to 100 scale) ([24]; 125 g ai/ha): 0
Wheat plant response rating (0-100) ([25]; 31 g ai/ha): 20
Wheat plant response rating (0 to 100 scale) ([25]; 125 g ai/ha): 60
Foxtail, Green plant response rating (0-100) ([26]; 31 g ai/ha): 0
Foxtail, Green plant response rating (0 to 100 scale) ([26]; 125 g ai/ha): 30
Corn plant response rating (0-100) ([27]; 31 g ai/ha): 20
Corn plant response rating (0 to 100 scale) ([27]; 125 g ai/ha): 20
Kochia plant response rating (0-100) ([28]; 31 g ai/ha): 0
Kochia plant response rating (0 to 100 scale) ([28]; 125 g ai/ha): 0
